The data set in a line: Human HepG2 cell viability assay in 384 well format. Format: toxicity, cell-based. Further details: dose 125 nL, time 70.5 hour; cytotoxicity at 70.5 h: concentration not given beside the values. The following applies: HepG2 cells, read-out: Inhibition.

`CN(Cc1ccco1)C(=O)c1cccc(N2CCCC2=O)c1`: the cytotoxicity at 70.5 h is -8.03%. Consider `CC(Cn1ccnc1)NC(=O)NCCc1ccc(Cl)s1` (configuration not stated), for which the cytotoxicity at 70.5 h is -4.32%. Next, `Cn1cc(C2CCCN2C(=O)COCCc2ccccc2)cn1` (configuration not stated): -8.67%. Then `CCc1nc2n(n1)CC(NCC(=O)Nc1cc(C)nn1C)CC2` (configuration not stated), with -6.14%. Next, `CC(C)c1noc(CCCC(=O)N2CCN(Cc3ccccn3)CC2)n1`: -11.6%; `CC(C)c1noc(CCCC(=O)N2CCN(Cc3ccsc3)CC2)n1`: -6.21%. Turning to `Cc1nc(CCNC(=O)NC(C)Cn2cccn2)cs1` (configuration not stated), the cytotoxicity at 70.5 h is -12.8%. With `Cn1cc(NS(=O)(=O)c2ccc(C(F)(F)F)cc2)ccc1=O`, the cytotoxicity at 70.5 h was -9.18%. Next, `CCCc1ccc(S(=O)(=O)Nc2ccc(=O)n(C)c2)cc1`: 22.8%; `Cn1ncc2c(=O)[nH]c(CN3CCCC3c3cccc(F)c3)nc21` (configuration not stated): -7.63%. Then `Cn1ncc2c(=O)[nH]c(CN3CCc4sccc4C3)nc21`, with 13.1%; and `CCc1nc(CN2CCN(C(=O)C3(C#N)CCCC3)CC2)cs1`, with -2.5%; and `CCn1cnnc1C1CCN(C(=O)c2cnc(C)s2)CC1`, with -12.3%. Next, `Cn1cc(C2CCCN2C(=O)CCCOc2ccc(F)cc2)cn1` (configuration not stated): 15.6%. For `Cn1cc(C2CCCN2C(=O)COCCOc2ccccc2)cn1` (configuration not stated), the cytotoxicity at 70.5 h is -4.67%. Regarding `CN(C)c1cc2c(nn1)CCN(C(=O)C1Cc3ccccc3O1)C2` (configuration not stated), the cytotoxicity at 70.5 h was 8.33%. Next, `COc1ncccc1CNC(=O)N(Cc1ccc(F)cc1F)C1CC1`: -12.4%. For `CCc1ccc(C(=O)N2CCC(c3nncn3CC)CC2)s1`, the cytotoxicity at 70.5 h was -7.92%. Next, `Cn1cnnc1C1CCN(C(=O)c2cc3c(s2)CCCC3)CC1`: 14.6%; `CN(Cc1nccn1C)C1CCCN(Cc2noc(C3CC3)n2)C1` (configuration not stated): 15.8%; `CCc1cnc(CN(C)C2CCN(CC(=O)Nc3cc(C)on3)C2)o1` (configuration not stated): 11.1%. As for `CCC(O)CN1CCN(C(=O)c2ccc3c(c2)COC3)CC1` (configuration not stated), the cytotoxicity at 70.5 h was determined as 14.3%. Next, `OC(COCc1ccccc1)CN1CCC(c2ccn[nH]2)CC1` (configuration not stated): 19.6%; `CN(CC(=O)N1CCCCC1Cn1cccn1)C1CC1` (configuration not stated): 4.49%. In the case of `Cn1ccnc1CN1CCN(Cc2noc(C3CC3)n2)CC1`, the cytotoxicity at 70.5 h is -12.6%.

`CC(C(=O)NCCOc1ccc(F)cc1)n1cncn1` (configuration not stated): the cytotoxicity at 70.5 h was -14.7%. Take `O=C(NCc1ccccn1)C1=NN(c2ccccc2)C(=O)CN1`: the cytotoxicity at 70.5 h is -16.4%. As for `CCCc1noc(CCC(=O)N2CCCC2c2ccc(OC)cc2)n1` (configuration not stated), the cytotoxicity at 70.5 h was -16.8%. Take `OC(COc1ccc(F)cc1)CN1CCC(c2ccn[nH]2)CC1` (configuration not stated): the cytotoxicity at 70.5 h was -9.19%.

In the case of `Cc1nc(-c2ccco2)ccc1C(=O)N1CCn2c(C)nnc2C1`, the cytotoxicity at 70.5 h was -17.1%. As to `CCN1CCN(C2CCN(CC(=O)NCC(F)(F)F)CC2)C1=O`, the cytotoxicity at 70.5 h is -6.43%.

In the case of `Cc1cnn(CCNCC(O)COc2c(Cl)cccc2Cl)c1` (configuration not stated), the cytotoxicity at 70.5 h is -4.22%. Then `Cc1noc(C)c1C(=O)N1CCCC1c1c(C)nn(C)c1C` (configuration not stated), with -8.88%. Next, `Cc1nn(C)c(Cl)c1C1CCCN1Cc1cccc(C(N)=O)c1` (configuration not stated): -10.9%; `c1coc(-c2noc(CN3CCCCC3Cn3cncn3)n2)c1` (configuration not stated): 5.99%; `CCn1ncc2c1CCCC2NCc1cc(OC)cc(OC)c1` (configuration not stated): -9.39%. Next, `CCc1noc(CN2CCN(C(=O)N(CC)CC)CC2)n1`: -10%; `Cc1cccc(OCC(O)CN2CCC(c3ccn[nH]3)CC2)c1` (configuration not stated): -0.803%; `CCCc1noc(CCCC(=O)N2CCCC2c2cnn(C)c2)n1` (configuration not stated): -8.23%. Take `O=C(c1ccc2c(c1)COC2)N1CCN(CCO)CC1`: the cytotoxicity at 70.5 h is -3.79%. Turning to `CCn1ncc2c1CCCC2NCc1ccc(OC)c(F)c1` (configuration not stated), the cytotoxicity at 70.5 h was -9.63%.

Turning to `COCCNC(=O)CN1CCC(N2CCN(C)C2=O)CC1`, the cytotoxicity at 70.5 h was -13.2%.

Consider `OC(COCc1ccccc1Cl)CN1CCC(c2ccn[nH]2)CC1` (configuration not stated), for which the cytotoxicity at 70.5 h came out at 1.38%. Next, `CN(C)CC1CN(Cc2ccc(-n3cccn3)cc2)CCO1` (configuration not stated): 0.969%; `O=C(CN1CCCC1Cn1cccn1)NCCC1=CCCCC1` (configuration not stated): -9.89%; `CCc1ccsc1C(=O)N1CCCN(Cc2cnn(CC)c2)CC1`: 7.56%. Next, `CNC(=O)CCS(=O)(=O)Cc1cc(Cl)c2c(c1)OCCO2`: -3.97%; `CC(=O)c1ccc(S(=O)(=O)NCc2cccnc2N(C)C)cc1`: -3.14%. Next, `COC(=O)c1cccc(S(=O)(=O)NCc2cccnc2N(C)C)c1`: -2.85%; `O=C(CN1CCC(c2ccnn2CCO)CC1)NCC1CCCCC1`: -3.43%. As for `COc1c(C)cnc(CN2CCOC(Cn3nc(C)cc3C)C2)c1C` (configuration not stated), the cytotoxicity at 70.5 h was -2.15%. Then `CCOc1ccnc(N2CCN(C(=O)c3ccoc3C)CC2)n1`, with -3.63%. Next, `COc1ccc(-c2noc(CNC(C)Cn3cccn3)n2)c(OC)c1` (configuration not stated): 22.3%; `Cn1ccnc1CN1CCCN(C(=O)c2ccc3c(c2)COC3)CC1`: 5.68%; `O=C(NCCC1=CCCCC1)NCc1nnc2n1CCC2`: -10.8%. Next, `O=C(NCc1cc[nH]n1)N1CCN(c2ccccc2Cl)CC1`: 6.1%; `O=C(NCCN1CCCCC1)c1scnc1Cl`: -8.74%; `CN(CCc1ccc(F)cc1)Cc1nc2c(cnn2C)c(=O)[nH]1`: 11.7%.

For the compound `CC(C(=O)N1CCCN(c2ncccc2C#N)CC1)n1cccn1` (configuration not stated), the cytotoxicity at 70.5 h was -9.79%. Next, `CN(CC(=O)N1CCCC1c1cnn(C)c1)c1ccc(Cl)cn1` (configuration not stated): 3.73%; `O=C(NCc1ccc(-c2ccn[nH]2)cc1)N1CCC(N2CCCC2)C1` (configuration not stated): -5.88%; `Cc1nnc(CN2CCN(CCOc3ccccc3C#N)CC2)n1C`: 7.15%.

On to `CCc1ncc2c(n1)CN(Cc1nc(-c3ccsc3)oc1C)CC2`, for which the cytotoxicity at 70.5 h came to 1.83%.

For the compound `O=C(CCOc1ccccc1)N1CCC(Nc2cccnn2)CC1`, the cytotoxicity at 70.5 h amounted to 1.59%. Next, `O=C(c1ccsc1)N1CCCC(c2cc(C(F)(F)F)[nH]n2)C1` (configuration not stated): 11.1%. On to `O=C(c1ccc(Cl)o1)N1CCCC(c2cc(C(F)(F)F)[nH]n2)C1` (configuration not stated), for which the cytotoxicity at 70.5 h was -3.16%. Turning to `O=C(c1ccc[nH]1)N1CCCC(c2cc(C(F)(F)F)[nH]n2)C1` (configuration not stated), the cytotoxicity at 70.5 h was -0.878%. Then `CC(C)(C)c1ncc(C(=O)NCCS(N)(=O)=O)s1`, with -1.37%. For `CSc1nccn1-c1cccc(C(=O)NCC2CC2)c1`, the cytotoxicity at 70.5 h is 0.766%. Next, `O=C(NCc1cc[nH]n1)N1CCCCC(N2CCCC2)C1` (configuration not stated): -0.0102%; `COc1cc(C)ccc1OCCC(=O)N1CCCC1Cn1cccn1` (configuration not stated): -3.24%. In the case of `Cn1ccnc1CN1CCCN(C(=O)c2ccc(Cl)o2)CC1`, the cytotoxicity at 70.5 h is -8.18%. Regarding `Cc1cc(NC(=O)CN2CCc3cnc(C)nc3C2)on1`, the cytotoxicity at 70.5 h is 35.8%. Then `O=C(NCCN1CCCc2ccccc21)c1scnc1Cl`, with 10.6%; and `CCc1cnc(CN(C(C)=O)C2CCN(CCc3cccs3)C2)o1` (configuration not stated), with 8.24%; and `CC(C)N1CC(C(=O)NCCOc2ccc3c(c2)OCO3)CC1=O` (configuration not stated), with 1.18%. Then `COc1ccc(C2=CCN(C(=O)C3CCCN(C(N)=O)C3)CC2)cc1` (configuration not stated), with -6.51%.

As for `O=C(Nc1cccc(CNCc2cccs2)c1)C1CCCC1`, the cytotoxicity at 70.5 h is -15%. Next, `Cn1ncc2c(=O)[nH]c(CN3CCCC3Cc3ccccc3)nc21` (configuration not stated): -13.7%; `Cn1ncc2c(=O)[nH]c(CN3CCC(Cc4ccccc4)CC3)nc21`: 34.8%.

Consider `COc1cc(C(=O)N(Cc2cnn(C)c2)C(C)C)ccc1OCC(N)=O`, for which the cytotoxicity at 70.5 h is 4.9%. `CC(NC(=O)NCC1(c2ccc(F)cc2)CCC1)c1nncn1C` (configuration not stated): the cytotoxicity at 70.5 h was -16.8%. Then `CCc1ccc(S(=O)(=O)Nc2c(C)cccc2C(=O)O)s1`, with 18.4%; and `Cc1cn2c(n1)CCC(NC(=O)CCC(F)(F)F)C2` (configuration not stated), with -3.72%. As to `CCCc1n[nH]c(C2CN(C(=O)c3cc(F)ccc3OC)CCO2)n1` (configuration not stated), the cytotoxicity at 70.5 h was -23.2%. `Cc1ncc2c(n1)CCN(C(=O)Cc1c(C)noc1C)C2`: the cytotoxicity at 70.5 h stood at 22.9%. Regarding `COCCN1CCC(NC(=O)C2(c3cc(C)cc(C)c3)CC2)CC1`, the cytotoxicity at 70.5 h was -11.3%. On to `CCN1CCOC(CNCc2ccccc2OCC(=O)N(C)C)C1` (configuration not stated), for which the cytotoxicity at 70.5 h was -4.93%.

For the compound `COc1ccc(C(=O)N(Cc2cnn(C)c2)C(C)C)cc1Br`, the cytotoxicity at 70.5 h was -9.53%. Then `COc1ccc(C2=CCN(C(=O)C3CC(=O)N(C4CC4)C3)CC2)cc1` (configuration not stated), with -12.9%; and `O=C(CN1CCCC1Cn1cncn1)NCCOc1cccc(F)c1` (configuration not stated), with -14.6%; and `CCCc1n[nH]c(C2CN(C(=O)c3ccco3)CCO2)n1` (configuration not stated), with -10.8%. Next, `CC(C)OCCC(=O)N(C)CCCc1cc(-c2ccccc2)no1`: 42.3%. Then `Cc1ncsc1C(=O)NCCSCCCO`, with 9.95%; and `CC(=O)NCc1ccc(C(=O)N2CCCCC2Cn2cccn2)o1` (configuration not stated), with 8.35%; and `Cc1csc(CNC(=O)N(C)Cc2cnn(C)c2)n1`, with -15.5%. In the case of `Cc1cc(C2CCCN2CC(=O)N(CCC#N)c2ccccc2F)on1` (configuration not stated), the cytotoxicity at 70.5 h was -12.2%. Then `CN(CC(=O)N1CCC(Oc2ccccc2)CC1)c1cnccn1`, with -13.9%; and `Cn1ccnc1CN1CCN(c2ccc(C#N)cn2)CC1`, with -13.3%; and `Cn1ccnc1CN1CCN(c2ccc(C#N)cc2F)CC1`, with -7.5%.

For `Clc1cc(CN2CCCC2Cn2cncn2)c2ncccc2c1` (configuration not stated), the cytotoxicity at 70.5 h was -20.8%.

For the compound `O=C(Nc1cccc(CNCc2csc(Br)c2)c1)C1CC1`, the cytotoxicity at 70.5 h was found to be 4.95%.

Source of the values: ChEMBL document CHEMBL3507680, “University of Dundee, Gates Library screen for HepG2 cell viability”.
